The values that follow are results of earlier work, collected in patent publication US20260174914A1, “METHOD OF TREATING PSMA-EXPRESSING CANCERS” (ENDOCYTE, INC., priority 2020, published 2026).

On to “XOMA 089: fully human monoclonal antibody that specifically binds and neutralizes TGF-beta 1 and 2 ligands”, for which the “cross-reactivity with rodent TGF-β” value in the data set with rodent TGF-β is listed as “cross-reacts”. Also, the “cross-reactivity with cynomolgus monkey TGF-β” value in the data set with cynomolgus monkey TGF-β is reported as “cross-reacts”.
